Test results as given in US20230270781A1, “TREATMENT OR PREVENTION OF PRO-INFLAMMATORY DISEASES OR CONDITIONS USING INDUCED REGULATORY T (ITREG) CELLS” (RAPA THERAPEUTICS, LLC, priority 2020, published 2023).

Assays:
[1] = test system: T cell TCR specificities of peripheral blood mononuclear cells; test: RNA-based T cell receptor repertoire profiling pre- and post-etanercept therapy; type: in vivo, human
Description: FIGS. 23A & 23B depict the use of RNA-based T cell receptor sequencing to detect a widespread up- and down-regulation of T cell TCR specificities after therapy with the TNF-α inhibitor, etanercept. In FIG. 23, RNA was isolated from peripheral blood mononuclear cells from an patient pre- and post-therapy with etanercept therapy. The RNA was subjected to TCR repertoire profiling, as previously described by Rosati E, Dowds CM, Liaskou E, Henriksen EKK, Karlsen TH, Franke A. Overview of methodologies for T-cell receptor repertoire analysis. BMC Biotechnol. 2017;17(1):61.
FIGS. 36A-36B depict use of RNA-based T cell receptor sequencing to detect a widespread up- and down-regulation of T cell TCR specificities after therapy with the TNF-α inhibitor, etanercept. In FIGS. 36A-36B, RNA was isolated from peripheral blood mononuclear cells from a patient pre- and post-therapy with etanercept therapy. The RNA was subjected to TCR repertoire profiling, as previously described by Rosati E, Dowds CM, Liaskou E, Henriksen EKK, Karlsen TH, Franke A. Overview of methodologies for T-cell receptor repertoire analysis. BMC Biotechnol. 2017;17(1):61.

[2] = test system: human CD4+ and CD8+ T cells; test: Flow cytometry of FOXP3, Tbet, GATA3 in extended hybrid Th2/TREG culture (days 12, 20, 32); type: cell-based
Description: To evaluate these transcription factors in our manufacturing method, T cells were first subjected to the step 1 de-differentiation procedure and then re-differentiated in the hybrid TREG-Th2 culture condition (IL-2, TGF-β, and IL-4). In addition, we compared the effects of pemetrexed with a classical mTOR inhibitor.
The iTREG phenotype is considered to be unstable; as such, we evaluated the stability of T cells re-differentiated using the hybrid TREG-Th2 culture condition at delayed time points, including days 20 and 32 of culture. In addition, to test phenotype stability in a rigorous manner, between day 24 and day 32 of culture, T cells received a high level of co-stimulation (3:1 bead-to-T cell ratio) and were propagated in media without cytokines or pharmacologic agents.
FIGS. 19A-19D illustrate that extended culture of de-differentiated T cells in the hybrid Th2/TREG polarization condition containing pemetrexed results in the generation of CD4^+ T cells expressing FOXP3 and GATA3 transcription factors. […] At days 12, 20, and 32 of culture, T cells were harvested and subjected to surface flow cytometry (CD4 marker) and intra-cellular staining for the following transcription factors, FOXP3, Tbet, and GATA3. The data above show the percent CD4 cells out of the total cultured population (FIG. 19A); the percent of CD4 cells that expressed the TREG transcription factor FOXP3 (FIG. 19B); the percent of CD4 cells that expressed the Th1 transcription factor Tbet (FIG. 19C); and the percent of CD4 cells that expressed the Th2 transcription factor GATA3 (FIG. 19D).
FIGS. 20A-20D illustrate that extended culture of de-differentiated T cells in the hybrid Th2/TREG polarization condition containing pemetrexed results in the generation of CD8^+ T cells expressing FOXP3 and GATA3 transcription factors. […] At days 12, 20, and 32 of culture, T cells were harvested and subjected to surface flow cytometry (CD8 marker) and intra-cellular staining for the following transcription factors, FOXP3, Tbet, and GATA3. […]

[3] = test system: human CD4+ and CD8+ T cells; test: Expansion of de-differentiated T cells in Th1, TREG or hybrid Th2/TREG polarization with or without pemetrexed; type: cell-based
Method: Human CD4^+ and CD8^+ T cells were subjected to a 3-day de-differentiation procedure (“STEP 1”). […] In addition, the T cell culture in the presence of the variable polarization conditions was performed without the novel inhibitory molecule, pemetrexed (“0”) or in the presence of variable concentrations of pemetrexed, as indicated (10 nM [“10”]; 33 nM [“33”]; or 100 nM [“100”]. After a total of 10 days of culture, the n=24 cultures were harvested and live cells were enumerated and graphed above (y-axis indicated number of cells × 10^6; input cell number was 1.5 × 10^6 cells).

[4] = test system: human CD4+ and CD8+ T cells; test: Luminex cytokine secretion in extended hybrid Th2/TREG culture (days 12, 20, 32); type: cell-based; settings: for ability of T cells to secrete IL-5 / ability of T cells to secrete IL-13: inhibitor in TREG-Th2 re-differentiation culture: temsirolimus 1.0 µM or pemetrexed 10 nM
Description: (§1) FIGS. 21A-21D illustrates that extended culture of de-differentiated T cells in the hybrid Th2/TREG polarization condition results in the generation of T cells expressing with a predominant Th2 cytokine phenotype: IL-4, IL-5, and IL-13 secretion. […] At days 12, 20, and 32 of culture, the T cells were harvested, washed, and restimulated with 3/28 beads (3:1 ratio) for 24 hr; the resultant supernatant was harvested and tested for cytokine content by Luminex multi-analyte method. All results shown are expressed as cytokine level in pg per ml per 1 × 10^6 cells/ml/24 hr. The Th2 cytokine IL-10 was also evaluated: all values were less than 20 pg/ml per 1 × 10^6 cells/ml/24 hr.
as §1, with “22A-22D illustrate” for “21A-21D illustrates”, “IL-2, IFN-γ,” for “IL-4, IL-5,”, “GM-CSF” for “IL-13”, “inflammatory cytokines IL-17 and TNF-α were” for “Th2 cytokine IL-10 was”

[5] = test system: human CD4+ and CD8+ T cells; test: RNA expression analysis (Luminex Quantigene) after 3-day de-differentiation culture; type: cell-based; settings: relative to control Th1/Tc1 culture, temsirolimus 1 µM
Method: At the end of the de-differentiation interval, cells were harvested, RNA was isolated, and RNA expression analysis was performed by Luminex Quantigene method. All results shown represent relative RNA expression, with results normalized to a value of 1.0 for the Th1/Tc1 control culture.

[6] = test system: human CD4+ and CD8+ T cells; test: Western blot for mTORC1 complex protein Raptor after 3-day de-differentiation culture; type: cell-based
Description: After the 3-day culture interval, the T cells were harvested, and protein was isolated and subjected to western blot analysis for the mTORC1 complex protein, Raptor, and the housekeeping gene, Actin.

[7] = test system: human CD4+ and CD8+ T cells; test: Western blot for Raptor, Rictor, p70S6K, SGK1 after 3-day de-differentiation culture; type: cell-based; settings: relative to control culture without the three inhibitors; temsirolimus 1 µM, Vitamin D 0.03-1.0 nM, Daclizumab 50 µg/ml
Description: After the 3-day culture interval, the T cells were harvested, and protein was isolated and subjected to western blot analysis for the mTORC1 complex protein, Raptor; the mTORC2 complex protein, Rictor; the post-mTORC1 protein p70S6K; the post-mTORC2 protein, SGK1; and the housekeeping gene, GAPDH.

[8] = test system: human CD4+ and CD8+ T cells; test: T cell yield at day 13 after de-differentiation interval and re-stimulation without inhibitors; type: cell-based; settings: column #7; temsirolimus reduced to 0.1 µM
Method: After 10 days (13 days of total culture), the T cells were harvested, enumerated, and evaluated by flow cytometry. FIG. 8 illustrates the effect of culture components during the de-differentiation interval on subsequent T cell yield (at day 13 of culture). […] After the 3-day interval, media was exchanged to fresh X-Vivo 20 without inhibitors, high-level co-stimulation was provided (3:1 bead-to-T cell ratio), and the T cell growth cytokines IL-2 (100 IU/ml) and IL-7 (10 ng/ml) were added. At day 13 of culture, viable T cells were enumerated and the overall yield is shown relative to day 0 input number.

[9] = test system: human CD4+ and CD8+ T cells; test: Western blot for pro-apoptosis molecule BIM after 3-day de-differentiation culture; type: cell-based; settings: 1:3 bead-to-T cell ratio; temsirolimus, Vitamin D 0.1 nM, Daclizumab 50 µg/ml
Description: After the 3-day culture interval, the T cells were harvested, and protein was isolated and subjected to western blot analysis for the pro-apoptosis-related gene, BIM, and the housekeeping gene, Actin.

[10] = patient PBMC, post- versus pre-etanercept
[11] = 3-day culture, bead-to-T cell ratio 1:3, Vitamin D 0.1 or 1.0 nM

etanercept
post-treatment frequencies of contracted T cell clones (SEQ ID NOs: 1-3 and 5) ([1]; decreased from frequencies of 259 to 598 pre-etanercept): 0.01 | TCR specificities down-regulated in the post-therapy sample [1, 10]: approximately 25% | TCR specificities up-regulated in the post-therapy sample [1, 10]: approximately 25% | T cell clonal contraction ([1]; post- versus pre-etanercept): more than 4 log | T cell clonal expansion ([1]; post- versus pre-etanercept): more than 4 log

Nc1nc2[nH]cc(CCc3ccc(C(=O)N[C@@H](CCC(=O)O)C(=O)O)cc3)c2c(=O)[nH]1 [pemetrexed]
CD4 cells expressing GATA3 ([2]; end of culture, hybrid condition with pemetrexed 10 nM versus no inhibitor or temsirolimus): highest end-of-culture Th2-associated GATA3 expression | CD8+ T cells expressing TBET ([2]; hybrid condition in the presence of pemetrexed 10 nM): lowest levels | CD4 cells expressing TBET ([2]; hybrid polarization condition with pemetrexed 10 nM versus no inhibitor or temsirolimus): most consistently reduced TBET values | T cell number after re-differentiation in pure TREG polarization (IL-2 plus TGF-β without IL-4) ([3]; most stringent step 1, cultures #20 and #21, in the presence of pemetrexed): unsuccessful | T cell number after re-differentiation in TREG-Th2 polarization ([3]; step 1 temsirolimus, vitamin D, anti-IL-2 receptor antibody, pemetrexed 10 nM in step 2, 10 days): sufficient T cells | GM-CSF secretion ([4]; TREG-Th2 hybrid culture supplemented with pemetrexed 10 nM): higher degree | ability of T cells to secrete IL-5 [4]: fully preserved | ability of T cells to secrete IL-13 [4]: fully preserved

CO[C@H]1C[C@@H]2CC[C@@H](C)[C@@](O)(O2)C(=O)C(=O)N2CCCC[C@H]2C(=O)O[C@H]([C@H](C)C[C@@H]2CC[C@@H](OC(=O)C(C)(CO)CO)[C@H](OC)C2)CC(=O)[C@H](C)/C=C(\C)[C@@H](O)[C@@H](OC)C(=O)[C@H](C)C[C@H](C)/C=C/C=C/C=C/1C [temsirolimus]
Granzyme B RNA expression [5, 11]: reduction | IFN-gamma RNA expression [5, 11]: reduction | IL-10 RNA expression [5, 11]: reduction | IL-7 receptor alpha RNA expression ([5]; Vitamin D 1.0 nM): capable of up-regulating | KLF4 RNA expression ([5]; Vitamin D 1.0 nM): neither temsirolimus nor Vitamin D alone increased | KLF10 RNA expression ([5]; Vitamin D 1.0 nM): acts alone to beneficially up-regulate | HIF-1-α RNA expression ([5]; Vitamin D 0.1 to 1.0 nM): did not down-regulate | Nanog transcription factor RNA expression ([5]; Vitamin D 0.1 to 1.0 nM): up-regulation | STAT1 RNA expression ([5]; Vitamin D 0.1 to 1.0 nM): acts alone to beneficially down-regulate | T-BET RNA expression ([5]; Vitamin D 0.1 to 1.0 nM): acts alone to beneficially down-regulate | Raptor expression at temsirolimus 0.3 µM ([6]; culture 9, temsirolimus 0.3 µM, versus 1.0 µM): higher levels of Raptor expression | temsirolimus dose for optimal down-regulation of Raptor ([6]; in combination with Vitamin D): 1.0 µM | ability of T cells to secrete IL-5 [4]: blunted | ability of T cells to secrete IL-13 [4]: blunted | Rictor expression (western blot) [7]: effective | T cell yield at day 13 with temsirolimus 0.1 µM [8]: reduced the resultant T cell yield

B1: Daclizumab: anti-IL-2 receptor monoclonal antibody (antibody, chains of the INN, looked up, V domains shown)
VH: QVQLVQSGAEVKKPGSSVKVSCKASGYTFTSYRMHWVRQAPGQGLEWIGYINPSTGYTEYNQKFKDKATITADESTNTAYMELSSLRSEDTAVYYCARGGGVFDYWGQGTLVTVSS
VL: DIQMTQSPSTLSASVGDRVTITCSASSSISYMHWYQQKPGKAPKLLIYTTSNLASGVPARFSGSGSGTEFTLTISSLQPDDFATYYCHQRSTYPLTFGQGTKVEVK
Raptor expression (western blot, normalized by actin) ([6]; 1:3 bead-to-T cell ratio, temsirolimus 1.0 µM, Vitamin D 0.1 nM, daclizumab 50 µg/ml): beneficial role in suppressing | BIM expression (western blot, normalized by actin) [9]: beneficial role in suppressing | Rictor expression (western blot) [7]: did not abrogate
